Source: ChEMBL document CHEMBL1201862, “PubChem BioAssay data set” (2004)
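Five compound concentrations were applied to cells in 96-well plates for 48 hours; endpoints were derived by simple linear interpolation of the resulting dose-response curve. Abbreviation: GI50, concentration required for 50% inhibition of growth.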 Active and inactive are the calls of the source. Rule as the data show it: active = GI50 up to about 1.1 µM and inactive = higher.

Assays:
Test in all cases: DTP human tumour cell line panel, 48 h
[1] = tested on: SNB-78
[2] = tested on: DMS-273
[3] = tested on: DMS-114
[4] = tested on: M19-MEL
[5] = tested on: KM-20L2
[6] = tested on: DLD-1
[7] = tested on: HOP-18
[8] = tested on: XF498

Measured: GI50

Cc1ccc(S(=O)(=O)c2ccc(C)cc2[N+](=O)[O-])cc1
inactive: [1] 64.4 µM | [2] > 100 µM | [3] 22.4 µM | [4] 47.1 µM | [5] > 100 µM | [6] > 100 µM | [7] > 100 µM

Cc1ccc(C(=O)O/N=C2/CCCC/C2=C\c2ccccc2)cc1
inactive: [1] 15.6 µM | [2] 27.7 µM | [4] 67.9 µM | [5] 83.9 µM | [6] 78.5 µM | [7] > 100 µM | [8] 39.4 µM

Cc1cc(C)c(-n2c(-c3ccccc3)cs/c2=N\N=C2C=C(C(C)(C)C)C(=O)C(C(C)(C)C)=C2)c(C)c1
inactive: [1] > 100 µM | [2] > 100 µM | [3] 47.4 µM | [4] > 100 µM | [5] > 100 µM | [6] > 100 µM | [7] > 100 µM | [8] > 100 µM

COc1c(Cl)c(Cl)c(OC)c2c1C(=O)C=CC2=O
inactive: [1] 13 µM | [2] 15.2 µM | [3] 16 µM | [4] 18 µM | [5] 68.2 µM | [6] 14.5 µM | [7] 44.5 µM | [8] 16.9 µM

CCOc1ccc(NC(=O)/C(=C/c2ccccc2)C(C)=O)cc1
inactive: [1] 13.4 µM | [2] 9.14 µM | [3] 11.9 µM | [4] 10.8 µM | [5] 12.9 µM | [6] 7.38 µM | [7] 12.9 µM | [8] 14.4 µM

CC(C)C(=O)/C=C/c1ccc(Cl)c(Cl)c1
inactive: [1] 34.8 µM | [3] 19.2 µM | [4] 17.7 µM | [5] 19.2 µM | [6] 14.6 µM | [7] 11.4 µM | [8] 12.5 µM

CC(SC(=S)N1CCOCC1)c1cc2oc(=O)n(C)c2cc1Cl (stereo not drawn)
inactive: [1] > 100 µM | [2] > 100 µM | [3] 84.5 µM | [4] > 100 µM | [5] > 100 µM | [6] > 100 µM | [7] > 100 µM | [8] > 100 µM

C(=C\c1c2oc(-c3ccccc3)cc(-c3ccccc3)c-2c2ccccc12)/C=C1\c2ccccc2-c2c(-c3ccccc3)cc(-c3ccccc3)[o+]c21.[O-][Cl+3]([O-])([O-])[O-]
inactive: [1] > 100 µM | [2] > 100 µM | [3] > 100 µM | [4] > 100 µM | [5] > 100 µM | [6] > 100 µM | [8] > 100 µM

CCCN(CCC)c1c([N+](=O)[O-])cc(C(=O)N(CCO)CCO)cc1[N+](=O)[O-]
inactive: [1] > 100 µM | [2] > 100 µM | [4] > 100 µM | [6] > 100 µM | [7] > 100 µM | [8] 97.1 µM

CN(C)/N=N/c1ccccc1
inactive: [2] > 100 µM | [3] 31.6 µM | [4] 43.4 µM | [5] 42.3 µM | [6] > 100 µM | [7] > 100 µM | [8] > 100 µM
